The record followed here is patent publication US20170002057A1, “COMPOSITIONS CONTAINING FUSION PROTEIN OF ALBUMIN AND ANALOGS THEREOF, METHODS FOR MAKING AND USING THE SAME” (NAL PHARMACEUTICAL GROUP LIMITED, priority 2015, published 2017).

A short description of series [1]: In vivo pharmacokinetic profile in rat after IV injection (ELISA). How it is done:
The rat was restrained manually at the designated time points, approximately 300 μL of blood sample was collected via jugular vein into EDTA-K2 tubes and subsequently centrifuged at 4° C. and 1500 g for 10 min to obtain plasma samples.
Standard curve was prepared by the following procedure. Duplicate standard points were prepared by serially diluting Free SST Stock (1 mg/mL) with diluent buffer to produce 5, 2.5, 1.25, 0.625, 0.313, 0.156, 0.078 and 0.039 ng/mL solutions.
Standard curve was prepared by the following procedure. Duplicate standard points were prepared by serially diluting SST fusion protein (2.42 mg/mL) with pooled rat plasma to produce 225, 112.5, 56.2, 28.1, 14.1, 7.03, 3.51 and 1.76 ng/mL solutions.
ELISA assay has been performed as described in Example 5-3.
In general terms: In an ELISA, binding on a coated surface is turned into a signal by an enzyme label.

The target in series [2] is human somatostatin sst2 receptor (human) (UniProt P30874). Kind of series: cell-based or functional assay.
Chain of UniProt P30874 (P30874 whole entry, the tested form may be a part): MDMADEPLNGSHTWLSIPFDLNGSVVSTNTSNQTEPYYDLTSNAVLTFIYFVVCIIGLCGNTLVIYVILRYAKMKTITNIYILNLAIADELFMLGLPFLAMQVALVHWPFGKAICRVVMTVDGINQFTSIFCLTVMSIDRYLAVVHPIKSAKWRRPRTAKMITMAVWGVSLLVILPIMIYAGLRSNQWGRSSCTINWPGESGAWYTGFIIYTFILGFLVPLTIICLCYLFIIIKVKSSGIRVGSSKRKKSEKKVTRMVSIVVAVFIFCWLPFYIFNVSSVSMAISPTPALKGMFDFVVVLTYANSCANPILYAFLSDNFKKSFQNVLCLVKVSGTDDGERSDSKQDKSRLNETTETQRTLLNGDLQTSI
Setting [3] is: rat, intravenous, SST 0.02 mg/kg, SST fusion protein 27.1 mg/kg.

As for `C[C@H](N)C(=O)NCC(=O)N[C@H]1CSSC[C@@H](C(=O)O)NC(=O)[C@H](CO)NC(=O)[C@H]([C@@H](C)O)NC(=O)[C@H](Cc2ccccc2)NC(=O)[C@H]([C@@H](C)O)NC(=O)[C@H](CCCCN)NC(=O)[C@H](Cc2c[nH]c3ccccc23)NC(=O)[C@H](Cc2ccccc2)NC(=O)[C@H](Cc2ccccc2)NC(=O)[C@H](CC(N)=O)NC(=O)[C@H](CCCCN)NC1=O` [Free SST], the “clinical signs after injection” value in series [1] (male Sprague Dawley rats, tail vein injection, SST 0.02 mg/kg, SST fusion protein 27.1 mg/kg) was “no negative clinical signs were observed”. Besides, the level at 1 min in series [1] (male, Sprague Dawley, in vivo, rat, IV 0.02 mg/kg, sampling time 1 min, read-out: Plasma SST concentration, Mean) turned out to be 7.13 ng/mL. Moreover, in series [1] (male, Sprague Dawley, in vivo, rat, IV 0.02 mg/kg, sampling time 2 min, read-out: Plasma SST concentration, Mean), the level at 2 min came to 4.95 ng/mL. The level at 4 min in series [1] (male, Sprague Dawley, in vivo, rat, IV 0.02 mg/kg, sampling time 4 min, read-out: Plasma SST concentration, Mean) amounted to 4.3 ng/mL. The level at 0.1 h in series [1] (male, Sprague Dawley, in vivo, rat, IV 0.02 mg/kg, sampling time 6 min, read-out: Plasma SST concentration, Mean) came out at 1.07 ng/mL. Also, the level at 8 min in series [1] (male, Sprague Dawley, in vivo, rat, IV 0.02 mg/kg, sampling time 8 min, read-out: Plasma SST concentration, Mean) amounted to 2.95 ng/mL. In series [1] (male, Sprague Dawley, in vivo, rat, intravenous, SST 0.02 mg/kg, SST fusion protein 27.1 mg/kg, read-out: AUC0-inf, Mean (converted)), the AUC(0-inf) was 0.73 ng·h/mL. Besides, the AUC(0-t) in series [1] (male, Sprague Dawley, in vivo, rat, intravenous, SST 0.02 mg/kg, SST fusion protein 27.1 mg/kg, read-out: AUC0-t, Mean (converted)) is 0.483 ng·h/mL. Further, the clearance in series [1] (male, Sprague Dawley, in vivo, rat, intravenous, SST 0.02 mg/kg, SST fusion protein 27.1 mg/kg, read-out: CL, Mean) was 510 mL/min/kg. Further, the Vd in series [1] (male, Sprague Dawley, in vivo, rat, intravenous, SST 0.02 mg/kg, SST fusion protein 27.1 mg/kg, read-out: Vdss, Mean) turned out to be 2.19 L/kg. Further, the “Plasma SST concentration, Mean” value in series [1] (rat, IV 0.02 mg/kg, sampling time 0 min) is 0 ng/mL. Moreover, in series [1] (setting [3]), the “AUMC0-inf, Mean” value came to 173 mg · h^2/mL; the “AUMC0-t, Mean” value worked out at 55.9 mg · h^2/mL; the “MRTIV, Mean” value stood at 4.1 h.

For the compound Octreotide (peptide), in series [2], the EC50 values of the inhibition of cAMP production was found to be 41 pM.
